Values after ≈ are worked out from the molar mass of the structure shown.
How the values were obtained:
[1] = tested on: HT29 cells; test: MTT assay, metabolic activity of HT29 cells; format: cell-based; conditions: Homo sapiens, HT-29; HT29 colon tumor cells, 24 h incubation; read-out: IC50 Values (MTT method)
Procedure: (§1) The HT29 cell line (ATCC no. HTB-38) (human colon adenocarcinoma) was used in the present study. Cells were cultivated in RPMI 1640 culture medium with 10% fetal calf serum (FCS) (GibcoTM, Paisley, UK), supplemented with antibiotics (100 U/mL penicillin and 100 μg/mL streptomycin) (Sigma, St. Louis, MO, USA). The cell culture was performed in standard conditions, i.e., at 37 °C in a humidified atmosphere with 5% CO2. The CCD 841 CoTr cell line (ATCC no. CRL-1807) (human normal colon epithelium) was cultivated in RPMI 1640 +DMEM (1:1) medium (Sigma, St. Louis, MO, USA) with 10% FCS and the addition of antibiotics. The culture was carried out at 34 °C in a 5% CO2/95% air atmosphere.
(§2) After seeding (1 × 10^5 cells/mL) in a 96-well plate, the cells were incubated for 24 h. Thereafter, the tested compounds (100 μL) at a concentration range of 0–200 μg/mL in the culture medium were added to the wells (100 μL). The incubation lasted for 24 h. After that time, an MTT solution (5 mg/mL, 25 μL/well) was added to each well. The incubation was continued for another 3 h. After the incubation, 10% sodium dodecyl sulfate (SDS) in 0.01 M HCl (100 μL) was added in order to dissolve the purple formazan crystals. Solubilization was carried out overnight. Finally, spectrophotometric measurement was performed at 570 nm using an EL800 Universal Microplate Reader (BioTek Instruments, Winooski, VT, USA).

[2] = tested on: CCD 841 CoTr cells; test: MTT assay, metabolic activity of CCD 841 CoTr cells; format: cell-based, human; conditions: for IC50: Homo sapiens, CCD-841, 24 h, read-out: IC50 Values (MTT method)
Procedure: as §1, §2

[3] = tested on: HT29 cells; test: Neutral Red (NR) uptake assay, viability of HT29 cells; format: cell-based; conditions: Homo sapiens, HT-29; HT29 colon tumor cells, 24 h incubation
Procedure: as §1
After seeding (1 × 10^5 cells/mL) in a 96-well plate, the cells were incubated for 24 h. Thereafter, the tested compounds (100 μL) at a concentration range of 0–200 μg/mL in the culture medium were added to the wells (100 μL). The incubation lasted for 24 h. After that time, the culture medium was removed and a 0.4% Neutral Red solution in the culture medium was added to each well. The incubation was continued for another 3 h. After the incubation, the medium with the NR dye was discarded, and 4% paraformaldehyde in 1% CaCl2 was added for cell fixation (200 μL) and incubated for 3 min. Intracellular dye deposits were solubilized using 1% […] in a 50% ethanol solution (100 μL). The plates were then gently shaken (20 min.) at room temperature to dissolve and release the dye from the cells. Finally, spectrophotometric measurement was performed at 540 nm using an EL800 Universal Microplate Reader (BioTek Instruments, Winooski, VT, USA).

[4] = tested on: HT29 cells; test: Flow cytometry annexin V-FITC/PI, cell death types in HT29 cells; format: cell-based, human; conditions: HT29, 25 μg/mL, 24 h; for viability at 25 µg/mL: Homo sapiens, HT-29, read-out: Percentage of viable cells
Procedure: (§3) In a further flow cytometric study measuring normal and tumor cell death types, the cells were exposed to the cannabinoids at a concentration of 25 μg/mL for 24 h.
(§4) The annexin V-fluorescein isothiocyanate (FITC)/propidium iodide (PI) apoptosis kit (BD Biosciences, BD Pharmingen™, San Jose, CA, USA) was used for the quantitative analysis of cannabinoid-induced cell death.
(§5) For the analyses, both adhered (after detaching the cells with 10 mM EDTA in PBS w/o Ca^2+ and Mg^2+ ions solution) and floating cells were collected after 24 h of incubation with the tested cannabinoids. After collection, the cells were gently centrifuged (1000 rpm/5 min.). Next, the supernatant was discarded, and the cell pellet was suspended in warm PBS w/o Ca^2+ and Mg^2+ ions and incubated for 5 min. at room temperature. The centrifugation procedure was repeated again and, following the manufacturer’s procedure, the cells were suspended in 100 μL of 1X Annexin V Binding Buffer with 5 μL of FITC Annexin V […] and 5 μL of propidium iodide (PI) (5 mM). The preparation was gently vortexed and incubated at room temperature for 15 min. in the dark. After that time, the cells were subjected to cytometric analysis. Before dosing the cells into the cytometer, 400 μL of 1X Binding Buffer was added. The cells were analyzed using a flow cytometer (BD FACSCalibur) with CellQuest Pro Version 6.0 software within 1 h after the staining was completed.

[5] = Flow cytometry annexin V-FITC/PI, cell death types in CCD 841 CoTr cells; format: cell-based, human; conditions: human, CCD 841 CoTr cells (normal cells), read-out: Percentage of viable cells
Procedure: as §3, §4, §5

[6] = tested on: CCD 841 CoTr cells; test: as above; format: cell-based, human; conditions: 25 μg/mL, 24 h
Procedure: as §3, §4, §5

[7] = tested on: CCD 841 CoTr cells; test: Flow cytometry (PI) cell cycle analysis of CCD 841 CoTr cells; format: cell-based, human; conditions: 25 μg/mL, 24 h
Procedure: In the flow cytometric study, we assessed the impact of the cannabinoids at a concentration of 25 μg/mL on the distribution of cell cycle phases in the normal and cancer cells after 24 h incubation. Both adhered, and non-adsorbed (floating) cells were used to perform the analyses. They were collected after 24 h of incubation with the tested cannabinoids and centrifuged (3000 rpm/5 min.). Next, the cell pellet was rinsed and suspended in PBS w/o Ca^2+ and Mg^2+ ions and centrifuged again (3000 rpm/5 min.). The cell pellet was suspended and fixed in 70% ethanol (1 mL). Untreated cells served as a control. The cells were stored at −20 °C for 1 week. After that time, in accordance with the manufacturer protocol, the cells were subjected to the PI staining procedure (PI/RNase Staining Buffer, BD PharmingenTM, BD Biosciences, San Jose, CA, USA). Briefly, 1 mL of PBS w/o Ca^2+ and Mg^2+ ions was added to 1 mL of ethanol and incubated with gentle stirring for 5 min. at room temperature. Next, the cells were centrifuged (3000 rpm/5 min.) and suspended in PBS w/o Ca^2+ and Mg^2+ ions with gentle stirring for 5 min. at room temperature. The cells were centrifuged once again (3000 rpm/5 min.) and the cell pellet was suspended in 500 μL of PI/RNase Staining Buffer. The incubation was carried out for 15 min. at room temperature. Finally, the intensity of the PI fluorescence was measured using FACS Calibur (BD Pharmingen^TM). The obtained data were analyzed using Cell Quest Pro Version 6.0. for the Macintosh operating system (BD Pharmingen^TM). The percentage of cells in the appropriate phases of the cycle was calculated based on all analyzed gated cells. A total of 10,000 events were measured per sample.

[8] = CCD 841 CoTr colon normal cells, 24 h incubation

SMILES: CCCCCc1cc2c3c(c1)OC(C)(C)C1CCC(C)(CC31)O2 (stereo not drawn) [CBT, cannabicitran]
- IC50 [1]: 69.1 µg/mL (≈ 220 µM)
- IC50 [2, 8]: 55.5 µg/mL (≈ 177 µM)
- IC50 [3]: 53.9 µg/mL (≈ 171 µM)
- Cells in late apoptosis, more than in the control [4]: 49.2%
- Cells in necrosis, more than in the control [4]: 3.24%
- Percentage of cells in early apoptosis [4]: 0.91 ± 0.16%
- Percentage of cells in late apoptosis [4]: 52.23 ± 1.26 %
- Percentage of cells in necrosis [4]: 3.96 ± 0.40 %
- Reduction in the number of viable cells compared to the control [4]: 52.25%
- viability at 25 µg/mL [4]: 42.9 ± 0.96%
- viability at 24 h, 25 μg/mL [5]: 87.3 ± 2.11%
- Cells in late apoptosis, more than in the control [6]: 3.12%
- Percentage of cells in early apoptosis [6]: 2.90 ± 0.74%
- Percentage of cells in late apoptosis [6]: 8.72 ± 1.91 %
- Percentage of cells in necrosis [6]: 1.08 ± 0.56 %
- Reduction in the number of viable normal cells compared to the control [6]: 5.02%
- Effect on cell cycle transitions (in words) [7]: caused the accumulation of cells in the S phase
- Increase in the number of cells in the sub-G1 phase compared to the control [7]: 6.71%
- Percentage of cells in G1 phase [7]: 28.81 ± 0.86 %
- Percentage of cells in G2 phase [7]: 16.54 ± 0.72 %
- Percentage of cells in S phase [7]: 22.23 ± 0.15 %
- Percentage of cells in sub-G1 phase [7]: 28.84 ± 0.66 %

SMILES: CCCCCc1cc(O)cc(O)c1C/C=C(\C)CCC=C(C)C [abn-CBG, abnormal cannabigerol]
- IC50 [1]: 19.6 µg/mL (≈ 62 µM)
- Reduction of the metabolism of normal cells (MTT) ([2]; CCD 841 CoTr, 25 μg/mL, 24 h): over 81%
- IC50 [2, 8]: 15.3 µg/mL (≈ 48.5 µM)
- IC50 [3]: 13.7 µg/mL (≈ 43.2 µM)
- Cells in late apoptosis, more than in the control [4]: 68.83%
- Cells in necrosis, more than in the control [4]: 19.03%
- Percentage of cells in early apoptosis [4]: 3.65 ± 0.65 %
- Percentage of cells in late apoptosis [4]: 71.86 ± 2.36 %
- Percentage of cells in necrosis [4]: 19.75 ± 2.50 %
- Reduction in the number of viable cells compared to the control [4]: 90.42%
- viability at 25 µg/mL [4]: 4.74 ± 0.39%
- viability at 24 h, 25 μg/mL [5]: 25.5 ± 1.2%
- Cells in necrosis, more than in the control [6]: 47.27%
- Early and late apoptosis together, dying cells compared to the control [6]: 19.52%
- Percentage of cells in early apoptosis [6]: 8.57 ± 1.67 %
- Percentage of cells in late apoptosis [6]: 18.36 ± 3.62 %
- Percentage of cells in necrosis [6]: 47.55 ± 4.12 %
- Reduction in the number of viable normal cells compared to the control [6]: 66.79%
- Increase in the number of cells in the sub-G1 phase compared to the control [7]: 53.97%
- Percentage of cells in G1 phase [7]: 11.63 ± 0.83 %
- Percentage of cells in G2 phase [7]: 3.46 ± 0.79 %
- Percentage of cells in S phase [7]: 8.24 ± 0.56 %
- Percentage of cells in sub-G1 phase [7]: 76.10 ± 2.21 %

SMILES: CCCCCc1cc(O)c2c(c1)OC(C)(CCC=C(C)C)C=C2 (stereo not drawn) [CBC, cannabichromene]
- IC50 [1]: 176 µg/mL (≈ 560 µM)
- IC50 Values (MTT method) [2, 8]: 75.29 µg/mL (≈ 239 µM)
- Stimulation of cell metabolism compared to the control (MTT) ([2]; CCD 841 CoTr, lowest concentration, 24 h): over 4%
- IC50 [2, 8]: 75.2 µg/mL (≈ 239 µM)
- IC50 [3]: 60.6 µg/mL (≈ 193 µM)
- Percentage of cells in early apoptosis [4]: 1.36 ± 0.18%
- Percentage of cells in late apoptosis [4]: 6.84 ± 0.71 %
- Percentage of cells in necrosis [4]: 1.18 ± 0.39%
- Reduction in the number of viable cells compared to the control [4]: 7.13%
- viability at 25 µg/mL [4]: 88 ± 2.34%
- viability at 24 h, 25 μg/mL [5]: 91.4 ± 1.19%
- Percentage of cells in early apoptosis [6]: 2.51 ± 0.54%
- Percentage of cells in late apoptosis [6]: 5.58 ± 1.02%
- Percentage of cells in necrosis [6]: 0.54 ± 0.39%
- Reduction in the number of viable normal cells compared to the control [6]: did not significantly affect
- Effect on cell cycle transitions (in words) [7]: limited the transition of cells from the S to G2 phase
- Percentage of cells in G1 phase [7]: 32.31 ± 0.62%
- Percentage of cells in G2 phase [7]: 22.78 ± 0.86%
- Percentage of cells in S phase [7]: 23.38 ± 0.79 %
- Percentage of cells in sub-G1 phase [7]: 15.17 ± 0.79 %
- Reduction in the number of cells in the sub-G1 phase compared to the control [7]: 6.96%

Source: paper PMC11475369, “Exploring the Potential of Synthetic Cannabinoids: Modulation of Biological Activity of Normal and Cancerous Human Colon Epithelial Cells” (Cells, 2024)
